# Test results: patent publication US9056108B2, “Method of treating atrial fibrillation” (Gilead Sciences, Inc., priority 2009, dated 2015)
# Key:
# [1] = tested on: female rabbit isolated heart treated with E-4031; assay: Torsades de pointes in rabbit isolated heart treated with E-4031; conditions: E-4031 60 nM; dronedarone 10 μM
# Experimental: Each rabbit was sedated using intramuscular injections of 6 mg/kg xylazine and 40 mg/kg ketamine and then anesthetized using a “cocktail” of ketamine (15 mg/kg)+xylazine (4 mg/kg) in 1.5 ml saline. The ketamine/xylazine cocktail was administered as an i.v. bolus via the marginal ear vein. After anesthesia was confirmed, the thorax was opened and the heart was quickly excised. The heart was placed in a modified Krebs-Henseleit (K-H) physiological saline solution at room temperature. […] CPP was measured (with a Biopac MP 150 pressure transducer, Goleta, Calif.) from a side port of the aortic catheter. To facilitate exit of fluid from the chamber of the left ventricle (LV), the leaflets of the mitral valve were trimmed with fine spring-handled scissors. The right atrial wall was partially removed.
# Complete AV block was induced by thermo-ablation of the AV nodal area. […] A bipolar Teflon-coated electrode was placed on the right ventricular septum to pace the heart. Electrical stimuli 3 ms in width and 3-fold threshold amplitude were delivered to the pacing electrode at a frequency of 1 Hz throughout the experiments using a Grass S48 stimulator (W. Warwick, R.I.).
# After initiation of ventricular pacing, a 30-40 min equilibration delay was allowed for heart rate (and CPP) to achieve a steady state, an essential experimental condition for recording a good quality monophasic action potential (MAP) recording.
# Monophasic action potential (MAP) and ECG electrodes from Harvard Apparatus Inc. (Holliston, Mass.) were used to record heart rate (in beats per minute, or bpm), left ventricular MAPs and a bipolar ECG MAP electrodes were pressure contact Ag—AgCl cells attached to a circular holder with springs to keep the electrodes in contact with the LV epicardial surface. Two MAP electrodes were placed on the epicardial ventricular free wall below the level of the atrial-ventricular valves, one at the base to record a basal MAP and one at the apex to record an apical MAP. […] Signals were saved on a computer hard disk for subsequent analysis. Bipolar electrocardiograms (ECG) were generated using an isolated-heart ECG apparatus (Harvard Apparatus, Holliston, Mass.) attached to Biopac amplifier system.
# [2] = tested on: coronary-perfused canine left ventricular (LV) preparations; assay: Electrophysiology in isolated coronary-perfused canine left ventricular preparations; conditions: current in vitro investigation
# Experimental: Experiments were performed using isolated coronary-perfused canine right atrial (RA) and left ventricular (LV) preparations (≈3×1.5×1 cm). Isolation and perfusion of the preparations were as previously described.^9, 15, 16 Briefly, preparations were dissected from hearts removed from anesthetized (sodium pentobarbital) adult mongrel dogs (20-30 kg). Unfolded RA with attached rim of the right ventricle was cannulated and perfused with cold cardioplegic solution (4-8° C.) through the ostium of the right coronary artery; the LV wedge was perfused through a diagonal branch of the left anterior descending coronary artery. Unperfused tissue was removed with a razor blade. […]
# Transmembrane action potential (AP) recordings were obtained using floating glass microelectrodes at a sampling rate of 40 kHz. A pseudo-electrocardiogram (ECG) was recorded using two electrodes consisting of Ag/AgCl half cells placed in the Tyrode's solution bathing the preparation, 1.0 to 1.5 cm from the two opposite sides of the atrial or ventricular coronary-perfused preparations. […] Diastolic threshold of excitation (DTE) was determined by increasing stimulus intensity in 0.01 mA steps. Effective refractory period (ERP) was measured by delivering premature stimuli at progressively shorter S1-S2 intervals after every 10 basic beats at a pacing cycle length (CL) of 500 ms (5 ms steps; 2 times DTE). […]
# hNav1.5 = target: T1, hNav1.5 (Homo sapiens, UniProt Q14524); assay: Tefluthrin-induced late sodium current in HEK293 cells expressing hNav1.5; assay type: cell-based; conditions: HEK293 cells expressing hNav1.5, tefluthrin 10 μM; read-out: Concentration causing a half-maximal inhibition of late Na+
# T1 construct: expressed in transfected cells; host or cells: HEK293
# Experimental: The effect of dronedarone on late INa has not been reported. Therefore we determined the effect of dronedarone on late INa induced by incubation of HEK293 cells expressing the human heart sodium channel gene Nav1.5 with the late INa enhancer tefluthrin. […] Thus, the combination of dronedarone and ranolazine may be anticipated to reduce late INa. A reduction of late INa in the heart has been associated with a reduction of atrial arrhythmias in patients and in animal models of atrial fibrillation.
# [3] = in vivo; cited from earlier work
# T1 sequence (Q14524 whole entry): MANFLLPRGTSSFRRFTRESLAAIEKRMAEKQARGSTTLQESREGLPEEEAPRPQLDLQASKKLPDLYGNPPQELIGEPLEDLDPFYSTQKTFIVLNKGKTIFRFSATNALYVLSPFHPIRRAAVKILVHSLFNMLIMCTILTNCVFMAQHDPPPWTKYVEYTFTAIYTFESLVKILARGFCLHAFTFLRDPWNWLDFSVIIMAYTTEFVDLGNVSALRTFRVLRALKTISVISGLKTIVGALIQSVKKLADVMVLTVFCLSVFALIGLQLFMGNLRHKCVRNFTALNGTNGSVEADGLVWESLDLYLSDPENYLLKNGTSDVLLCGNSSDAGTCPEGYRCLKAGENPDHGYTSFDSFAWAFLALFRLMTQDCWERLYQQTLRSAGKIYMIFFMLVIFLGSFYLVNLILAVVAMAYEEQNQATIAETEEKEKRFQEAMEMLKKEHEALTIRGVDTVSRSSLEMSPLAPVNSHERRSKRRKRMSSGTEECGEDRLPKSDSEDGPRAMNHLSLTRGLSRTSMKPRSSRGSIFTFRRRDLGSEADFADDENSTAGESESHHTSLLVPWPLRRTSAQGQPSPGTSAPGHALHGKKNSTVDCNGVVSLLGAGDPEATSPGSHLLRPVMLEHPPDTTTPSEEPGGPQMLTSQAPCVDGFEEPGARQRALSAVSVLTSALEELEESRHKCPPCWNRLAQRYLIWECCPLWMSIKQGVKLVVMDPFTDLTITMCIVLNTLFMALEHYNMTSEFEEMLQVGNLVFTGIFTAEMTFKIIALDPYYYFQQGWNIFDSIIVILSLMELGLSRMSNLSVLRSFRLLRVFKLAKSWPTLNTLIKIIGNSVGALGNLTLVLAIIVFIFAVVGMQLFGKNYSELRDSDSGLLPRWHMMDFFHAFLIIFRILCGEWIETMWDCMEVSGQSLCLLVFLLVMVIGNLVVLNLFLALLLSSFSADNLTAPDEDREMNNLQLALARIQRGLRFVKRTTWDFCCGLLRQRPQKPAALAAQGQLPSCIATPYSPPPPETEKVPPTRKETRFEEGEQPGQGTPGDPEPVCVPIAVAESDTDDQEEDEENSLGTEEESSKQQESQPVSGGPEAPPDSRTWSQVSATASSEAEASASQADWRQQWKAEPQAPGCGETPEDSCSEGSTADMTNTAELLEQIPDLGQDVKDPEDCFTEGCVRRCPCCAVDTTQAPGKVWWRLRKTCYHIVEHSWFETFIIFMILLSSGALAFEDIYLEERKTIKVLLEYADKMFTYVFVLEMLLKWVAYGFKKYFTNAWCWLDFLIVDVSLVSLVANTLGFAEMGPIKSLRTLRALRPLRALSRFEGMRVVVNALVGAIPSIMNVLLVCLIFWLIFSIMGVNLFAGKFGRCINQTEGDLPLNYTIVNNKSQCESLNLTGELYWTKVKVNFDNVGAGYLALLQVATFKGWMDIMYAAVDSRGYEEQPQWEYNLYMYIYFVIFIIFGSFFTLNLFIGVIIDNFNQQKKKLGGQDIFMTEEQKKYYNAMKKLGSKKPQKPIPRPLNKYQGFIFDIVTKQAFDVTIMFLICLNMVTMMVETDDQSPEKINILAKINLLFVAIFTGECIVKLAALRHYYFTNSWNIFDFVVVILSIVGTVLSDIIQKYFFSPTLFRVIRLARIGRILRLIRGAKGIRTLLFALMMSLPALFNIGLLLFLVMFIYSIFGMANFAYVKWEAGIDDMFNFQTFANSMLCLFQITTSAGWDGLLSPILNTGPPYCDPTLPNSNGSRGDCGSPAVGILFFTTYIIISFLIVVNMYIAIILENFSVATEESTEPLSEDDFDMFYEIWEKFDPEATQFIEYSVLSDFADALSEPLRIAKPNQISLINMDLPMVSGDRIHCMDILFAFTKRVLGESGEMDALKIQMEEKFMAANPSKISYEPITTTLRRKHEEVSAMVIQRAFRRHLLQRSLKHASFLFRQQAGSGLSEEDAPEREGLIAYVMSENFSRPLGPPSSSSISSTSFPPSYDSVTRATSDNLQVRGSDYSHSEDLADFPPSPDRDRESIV
smiles,measurement,setting,value
"CCCCc1oc2ccc(NS(C)(=O)=O)cc2c1C(=O)c1ccc(OCCCN(CCCC)CCCC)cc1 [Dronedarone, N-(2-Butyl-3-(p-(3-(dibutylamino)propoxy)benzoyl)-5-benzofuranyl)methanesulfonamide]",Occurrences of torsades de pointes (TdP) (hearts),[1],1/6
same,Prolongation of ventricular ERP,[2],4%
same,IC50,hNav1.5,4 µM
same,Half-life of elimination,[3],about 24 hours
